# Measurements reported in patent US20240041853A1, “DOSAGE REGIMEN FOR A NR2B-NMDA RECEPTOR NAM FOR THE TREATMENT OF DEPRESSION” (Novartis AG, priority 2020, published 2024).
# Key:
# [1] = Garner et al 2015; Pagnozzi et al 1995; Preskorn et al 2008; cited from earlier work
# [2] = system: patients with treatment resistant depression (TRD); test: Phase IIa proof of concept study, efficacy (MADRS, CGI-I); type: in vivo, human
# Procedure: (§1) A multi-center, randomized, subject and investigator blinded, placebo controlled, active comparator, parallel group, proof of concept study to evaluate the efficacy, safety, tolerability, and pharmacokinetics of Compound (I) in patients with treatment resistant depression (TRD). The study included two different active Compound (I) doses of 0.16 mg/kg and 0.32 mg/kg given in two different regiments—weekly and bi-weekly (every other week). The study also included a ketamine arm.
# (§2) Adults with major depressive disorder and prior failure of ≥2 standard antidepressants of adequate dose and >8 weeks duration in a major depressive episode (per DSM-5 criteria) and Montgomery-Åsberg Depression Rating Scale (MADRS) score ≥24 were eligible. Patients were randomized (3:3:3:3:6:4) to one of six treatment arms for 36 days: low dose (0.16 mg/kg) Compound (I) weekly (N=11) or every other week (q2w [N=10]); high dose (0.32 mg/kg) Compound (I) weekly (N=10) or q2w (N=9); placebo (N=20); or ketamine 0.5 mg/kg weekly (N=10). Change in MADRS total score at 24 hours (h) from baseline (primary endpoint), was analyzed using analysis of covariance. Secondary endpoints included change in MADRS score at 48 hours and 6 weeks and clinical global impression-improvement (CGI-I) score at 24 hours, 48 hours and 6 weeks. Safety and tolerability were also assessed.
# [3] = system: patients with treatment resistant depression (TRD); test: Phase IIa proof of concept study, safety and tolerability (adverse events); type: in vivo, human
# Procedure: as §1, §2
# [4] = system: patients with unipolar and bipolar depression; settings: cited from earlier work
smiles,measurement,setting,value
"C[C@@H]([C@@H](O)c1ccc(O)cc1)N1CCC(O)(c2ccccc2)CC1 [CP-101,606]",frequency of dissociative adverse events,[1],low frequencies of dissociative adverse events
Oc1ccc([C@@H](O)CN2C[C@H]3C[C@H](Oc4ccccc4F)C[C@H]3C2)nc1 [Compound (I)],time in which efficacy occurred,"[2]; 0.16 mg/kg or 0.32 mg/kg, weekly or every other week",≤ 24 h
same,ΔAM [80% CI] in MADRS score vs placebo,"[2]; Week 6, 0.16 mg/kg q2w, 80% CI [−11.8, −1.15], p=0.059, greatest benefit",−6.46
same,maintenance of efficacy,[2]; after repeated dosing,maintained at 6 weeks
same,CGI-I scores vs placebo,"[2]; at 24 hours, 48 hours and 6 weeks",suggested benefits
same,Adjusted mean difference (ΔAM) in MADRS vs placebo,"[2]; at 24 hours, pooled 0.16 mg/kg, p=0.001",−8.25
same,mean decrease in MADRS score,"[2]; at 24 hours, pooled Compound (I) 0.16 mg/kg group (weekly and q2w)",15.51 points
same,mean decrease in MADRS score,"[2]; at 24 hours, pooled Compound (I) 0.32 mg/kg group (weekly and q2w)",12.98 points
same,Adjusted mean difference (ΔAM) in MADRS vs placebo,"[2]; at 24 hours, second pooled Compound (I) group (dose figure missing in print), p=0.019",−5.71
same,Adjusted mean difference (ΔAM) in MADRS vs placebo,"[2]; at 48 h, pooled 0.16 mg/kg, p=0.013",−7.06
same,Adjusted mean difference (ΔAM) in MADRS vs placebo,"[2]; at 48 h, second pooled Compound (I) group (dose figure missing in print), p=0.013",−7.37
same,efficacy of 0.16 mg/kg compared with 0.32 mg/kg,[2]; each administered once every week or once every other week,as effective as a dose of 0.32 mg/kg
same,improvement in MADRS score vs placebo,"[2]; patients with TRD, overall conclusion",significant improvement
same,Time to both onset and resolution of dissociative AEs and sedation,[3]; in vivo,longer for Compound (I) than for ketamine
same,safety signals,[3]; in vivo,No new safety signals were identified
Cc1ccc(COC(=O)N2CC[C@H](CNc3ncccn3)[C@H](F)C2)cc1 [MK-0657],frequency of dissociative adverse events,[1],low frequencies of dissociative adverse events
CNC1(c2ccccc2Cl)CCCCC1=O (stereo not drawn) [ketamine],Adjusted mean difference (ΔAM) in MADRS vs placebo,"[2]; at 24 hours, ketamine 0.5 mg/kg weekly, p=0.046",−5.67
same,mean decrease in MADRS score,"[2]; at 24 hours, ketamine group, 0.5 mg/kg weekly",12.94 points
same,Adjusted mean difference (ΔAM) in MADRS vs placebo,"[2]; at 48 h, ketamine 0.5 mg/kg weekly, p=0.019",−11.02
same,"Adverse events (AEs), patients",[3]; ketamine 0.5 mg/kg weekly,50%
same,"Dissociative AEs, patients",[3]; ketamine 0.5 mg/kg weekly,50%
same,incidence of sedation,[3]; ketamine 0.5 mg/kg weekly,10%
same,effect on suicidality,"[4]; Katalinic et al 2013, Murrough et al 2015",reduce suicidality
same,antidepressant effects,"[4]; single dose 0.5 mg/kg infused over 40 minutes, 7 patients, Berman et al 2000",rapid antidepressant effects
